Test results from patent publication US9895409B2, “Remedy for gastritis and gastric ulcer” (priority 2011, dated 2018).

Assays:
Type in all cases: in vivo, Wistar rats
[1] = test system: stomach damage induced by aspirin; experiment: Effect on preventing stomach damage in rats with stomach damage induced by aspirin (microscopic observation of opened stomach); conditions: oral, once every day for 5 weeks; aspirin 50 mg/kg BW; salt 0.167 g/kg BW; glibenclamide 10 mg/kg BW abdominally 1 hour before
Experimental: (§1) In order to measure an effect on preventing stomach damage, five-week Wistar rats were purchased from Central Lab. Animal Inc., Seoul, Korea. A breeding room was set to be 20° C. of the temperature, 50 to 60% of relative humidity, and 12 hours of lighting cycle, and water and food were set to be freely taken. The test animals were accommodated for 2 weeks using a general feed prepared on the basis of AlN-93G, and then, the weights of the animals were measured to divide them into each of test groups (n=8). Since then, the test groups were a normal group (Con) injected with distilled water only, a control group (NaCl) injected with pure sodium chloride (NaCl, 0.167 g/kg BW) that was a main ingredient of salt only, and a heat-treated salt-treating group injected with heat-treated purple salt (0.167 g/kg BW), in which each of sample solutions was orally injected along with aspirin (50 mg/kg BW) once every day for 5 weeks. In addition, glibenclamide (10 mg/kg BW) solution inhibiting KATP channel dissolved in 0.01 N NaOH including 4% glucose was abdominally injected 1 hour before orally injecting aspirin (50 mg/kg BW) and heat-treated salt (0.167 g/kg BW), and performed once every day for 5 weeks. The respective treating groups were fasted for 24 hours before sacrificing; sacrificed; and then, the stomach was removed.

[2] = test system: gastric ulcer induced by aspirin; experiment: Gastric ulcer index in rats with stomach damage induced by aspirin (method of Dekanski et al.); conditions: oral, once every day for 5 weeks; aspirin 50 mg/kg BW; salt 0.167 g/kg BW; glibenclamide 10 mg/kg BW; n=8
Experimental: as §1, with “The respective treating groups were fasted for 24 hours before sacrificing; sacrificed; and then, the stomach was removed.” left out
An effect of the heat-treated purple salt obtained in Example 2 on suppressing gastric ulcer was measured.

[3] = test system: damage of gastric mucous membrane induced by aspirin; experiment: Damage of gastric mucous membrane measured as stomach thickness in rats with stomach damage induced by aspirin; conditions: oral, once every day for 5 weeks; aspirin 50 mg/kg BW; salt 0.167 g/kg BW; glibenclamide 10 mg/kg BW; ocular micrometer
Experimental: as §1, with “[…] A degree of the damage of gastric mucous membrane of the heat-treated purple salt obtained” for “In addition, glibenclamide (10 mg/kg BW) solution inhibiting KATP channel dissolved”, “Example 2” for “0.01 N NaOH including 4% glucose”, “measured by measuring a stomach thickness. […] Since” for “abdominally injected 1 hour before orally injecting aspirin (50 mg/kg BW) and heat-treated salt (0.167 g/kg BW), and performed once every day for 5 weeks. The respective treating groups were fasted for 24 hours before sacrificing; sacrificed; and”, “thicknesses were measured using an ocular micrometer.” for “was removed.”

`CC(=O)Oc1ccccc1C(=O)O` [aspirin] was tested, and the “stomach damage (bleeding, inflammation, mucosa) observed with optical microscope (FIG. 2)” value [1] was “severe damage along with gastric hemorrhage”, the “gastric ulcer index (FIG. 3)” value [2] was 37.3±10.4 and the “stomach thickness (FIG. 4)” value [3] was “very thin as compared with the normal group”.
